# Tests used:
# M. tuberculosis DXS = M. tuberculosis DXS (Mycobacterium tuberculosis, UniProt P9WNS3); test: biochemical; type: biochemical; conditions: for inhibitory activity against M. tuberculosis DXS (in words): SAR discussion
# Vero cells = test: Vero cell cytotoxicity; type: cell-based; conditions: Vero cell toxicity versus M. tuberculosis growth inhibition
# Sequence of M. tuberculosis DXS (P9WNS3 whole entry): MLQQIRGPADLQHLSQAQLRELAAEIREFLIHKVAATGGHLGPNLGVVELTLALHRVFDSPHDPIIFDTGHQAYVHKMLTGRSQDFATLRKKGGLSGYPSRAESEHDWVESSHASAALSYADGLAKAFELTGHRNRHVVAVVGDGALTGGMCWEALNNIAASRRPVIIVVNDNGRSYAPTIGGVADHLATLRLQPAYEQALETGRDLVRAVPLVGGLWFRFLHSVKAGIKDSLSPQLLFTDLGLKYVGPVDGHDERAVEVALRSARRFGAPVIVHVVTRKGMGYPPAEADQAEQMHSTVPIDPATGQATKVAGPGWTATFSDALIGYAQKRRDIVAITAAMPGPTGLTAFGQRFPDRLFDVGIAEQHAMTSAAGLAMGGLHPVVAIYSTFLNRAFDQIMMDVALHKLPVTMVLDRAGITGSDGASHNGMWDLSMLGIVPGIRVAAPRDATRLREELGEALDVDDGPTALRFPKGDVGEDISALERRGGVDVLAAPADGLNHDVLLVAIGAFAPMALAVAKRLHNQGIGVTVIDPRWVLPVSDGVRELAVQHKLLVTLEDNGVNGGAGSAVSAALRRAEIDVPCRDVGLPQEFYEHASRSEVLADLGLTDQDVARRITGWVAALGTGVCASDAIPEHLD
Structure (SMILES),inhibitory activity against M. tuberculosis DXS (in words) (M. tuberculosis DXS),other results
CCCc1c(-c2ccccc2)[nH]c2c(-c3ccccc3)c(C)nn2c1=O [Compound 27],,IC50 (M. tuberculosis DXS): 71.9 ± 10.1 µM
CCOC(=O)Cc1c(C)nc2c(-c3ccccc3)cnn2c1O [Compound 4],lost its activity,
"COc1ccc(-c2cc(=O)n3nc(C)c(-c4ccc(F)cc4)c3[nH]2)cc1 [Compound 19, 2-methyl-3-(4-fluorophenyl)-5-(4-meth-oxy-phenyl)-4H-pyrazolo[1,5-a]pyrimidin-7-one]",,selectivity index (Vero cells): 4.6
COCc1cc(=O)n2ncc(-c3ccc(Cl)cc3)c2[nH]1 [Compound 2],inhibitory activity was abolished,
COc1ccc(-c2cc(=O)n3nc(C)c(-c4ccc(Cl)cc4)c3[nH]2)cc1 [Compound 18],,selectivity index (Vero cells): 2.1
Cc1cc(=O)n2ncc(-c3ccc(Cl)cc3)c2[nH]1 [Compound 3],inhibitory activity was abolished,
COCc1cc(=O)n2nc(C)c(-c3ccc(Cl)cc3)c2[nH]1 [Compound 25],loss in activity,

# From paper PMC4784473 (Bioorganic & medicinal chemistry letters, 2008)
